Here are results for 3 compounds from patent US8691865B2 (AbbVie Inc., priority 2008, dated 2014).

As a reminder, the IC50 is the concentration needed to halve the response being measured.

Experiment [1] concerns Sprague Dawley rats. Kind of experiment: Capsaicin induced secondary mechanical hyperalgesia model. The class given is in vivo. The conditions noted are these: po, 1 h, read-out: % inhibition @ 30 mg/kg p.o.; 30 mg/kg p.o. 60 minutes before testing; SMH measured 180 minutes after capsaicin; rat. As for the experimental part:
(ii) In Vivo Data—Capsaicin Induced Secondary Mechanical Hyperalgesia Model:
Sprague Dawley rats were briefly restrained, and capsaicin was administered at 10 μg in 10 μL of vehicle by intraplantar injection into the center of the right hind paw. Secondary mechanical hyperalgesia (SMH) was measured at the heel away from the site of injection 180 minutes following capsaicin exposure. Compounds and gabapentin (positive control), were administered p.o. 60 minutes before testing (2 hours after capsaicin) or i.p. 30 minutes before testing (2.5 hours after capsaicin). SMH was measured using calibrated von Frey filaments (Stoelting, Woodale, Ill.). Following the 1 hour habituation in the testing room, rats were moved to individual plexiglass chambers that sit on top of a wire mesh to allow for access for stimulation of the plantar surface of the hind paws. Rats were allowed to acclimate to the new chambers for 15 minutes before the onset of testing. The paw withdrawal threshold was determined by increasing and decreasing stimulus intensity (force: g) and calculated using Dixon's up-down method (Chaplan, S. R.; Bach, F. W.; Pogrel, J. W.; Chung, J. M.; Yaksh, T. L.; J. Neuroscience Methods 1994, 53(1), 55-63.). The filaments (maximum force of 15.0 g) were held in place for 8 seconds or until there was a withdrawal response from the mechanical stimulation.

A further experiment deals with human Cav2.2 (Homo sapiens, UniProt Q00975). Description: Assessment of calcium channel activity using FLIPR (Ca2+ influx in IMR32 cells). The class given is cell-based. Put shortly: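 IC50 values derive from nonlinear sigmoidal fitting of percent inhibition, relative to inhibitor-free activity, of Ca2+ influx read by FLIPR. Cells were IMR32 human neuroblastoma, plated at 1−1.2×10^5 per well and grown 48 h at 37 °C.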
Sequence of human Cav2.2 (Q00975 whole entry): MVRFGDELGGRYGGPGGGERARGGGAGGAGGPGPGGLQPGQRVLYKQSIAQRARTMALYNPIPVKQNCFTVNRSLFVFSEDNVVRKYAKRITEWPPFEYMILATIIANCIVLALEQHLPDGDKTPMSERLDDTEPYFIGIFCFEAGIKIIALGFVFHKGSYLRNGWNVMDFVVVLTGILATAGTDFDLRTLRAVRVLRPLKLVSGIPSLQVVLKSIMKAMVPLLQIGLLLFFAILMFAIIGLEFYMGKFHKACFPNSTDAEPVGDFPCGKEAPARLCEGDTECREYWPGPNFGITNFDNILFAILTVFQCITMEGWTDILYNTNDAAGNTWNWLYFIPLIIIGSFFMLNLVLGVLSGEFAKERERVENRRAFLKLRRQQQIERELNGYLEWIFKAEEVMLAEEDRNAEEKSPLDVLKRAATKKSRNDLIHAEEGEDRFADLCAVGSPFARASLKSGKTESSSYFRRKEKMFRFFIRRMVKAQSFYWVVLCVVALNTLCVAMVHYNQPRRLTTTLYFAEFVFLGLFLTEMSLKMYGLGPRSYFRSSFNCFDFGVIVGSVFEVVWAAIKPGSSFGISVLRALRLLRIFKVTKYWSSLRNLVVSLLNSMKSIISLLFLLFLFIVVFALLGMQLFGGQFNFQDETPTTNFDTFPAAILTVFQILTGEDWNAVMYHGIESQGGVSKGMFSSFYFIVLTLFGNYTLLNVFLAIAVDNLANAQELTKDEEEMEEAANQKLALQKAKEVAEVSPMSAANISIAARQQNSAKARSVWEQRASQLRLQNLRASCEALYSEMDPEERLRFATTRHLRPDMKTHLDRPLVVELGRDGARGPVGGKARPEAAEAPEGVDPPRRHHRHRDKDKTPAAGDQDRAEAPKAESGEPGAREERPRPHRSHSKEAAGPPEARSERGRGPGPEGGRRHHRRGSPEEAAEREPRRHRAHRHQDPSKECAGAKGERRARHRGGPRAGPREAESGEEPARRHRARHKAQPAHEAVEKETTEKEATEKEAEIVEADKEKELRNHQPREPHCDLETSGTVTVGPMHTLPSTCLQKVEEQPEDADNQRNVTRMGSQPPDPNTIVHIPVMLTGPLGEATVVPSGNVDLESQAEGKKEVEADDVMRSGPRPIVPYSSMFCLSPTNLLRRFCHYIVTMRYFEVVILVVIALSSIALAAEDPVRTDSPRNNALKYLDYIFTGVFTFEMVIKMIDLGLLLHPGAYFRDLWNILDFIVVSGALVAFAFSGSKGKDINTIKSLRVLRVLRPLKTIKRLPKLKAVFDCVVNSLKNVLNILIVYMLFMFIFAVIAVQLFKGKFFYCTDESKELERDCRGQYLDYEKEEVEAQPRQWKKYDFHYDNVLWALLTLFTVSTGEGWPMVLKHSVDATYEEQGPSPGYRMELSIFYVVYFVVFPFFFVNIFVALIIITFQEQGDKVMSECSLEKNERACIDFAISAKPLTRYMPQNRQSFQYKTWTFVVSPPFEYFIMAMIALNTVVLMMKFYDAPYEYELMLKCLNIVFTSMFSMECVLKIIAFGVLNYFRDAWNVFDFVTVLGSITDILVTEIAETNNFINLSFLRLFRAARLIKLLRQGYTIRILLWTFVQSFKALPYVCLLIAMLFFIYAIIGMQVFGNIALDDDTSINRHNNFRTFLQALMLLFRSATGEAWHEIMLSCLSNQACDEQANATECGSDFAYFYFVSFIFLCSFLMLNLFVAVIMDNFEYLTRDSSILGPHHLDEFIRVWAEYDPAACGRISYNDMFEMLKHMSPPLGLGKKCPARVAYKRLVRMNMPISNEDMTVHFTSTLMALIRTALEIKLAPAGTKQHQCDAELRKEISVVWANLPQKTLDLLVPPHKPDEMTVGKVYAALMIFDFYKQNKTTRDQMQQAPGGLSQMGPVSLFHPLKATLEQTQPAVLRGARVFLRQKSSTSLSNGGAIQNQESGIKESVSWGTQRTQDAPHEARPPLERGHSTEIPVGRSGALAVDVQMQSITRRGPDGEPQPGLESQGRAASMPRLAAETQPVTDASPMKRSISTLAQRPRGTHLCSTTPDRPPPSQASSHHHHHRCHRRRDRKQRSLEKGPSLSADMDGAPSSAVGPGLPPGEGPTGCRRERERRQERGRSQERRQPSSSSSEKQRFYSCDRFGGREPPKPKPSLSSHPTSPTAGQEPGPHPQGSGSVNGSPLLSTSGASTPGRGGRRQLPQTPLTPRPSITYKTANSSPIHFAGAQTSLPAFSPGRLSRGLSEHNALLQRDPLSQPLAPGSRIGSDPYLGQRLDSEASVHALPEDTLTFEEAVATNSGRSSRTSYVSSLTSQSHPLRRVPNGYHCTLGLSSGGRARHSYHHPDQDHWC
Sequence of human Cav2.2 (P54289 25-956 partner limits assumed): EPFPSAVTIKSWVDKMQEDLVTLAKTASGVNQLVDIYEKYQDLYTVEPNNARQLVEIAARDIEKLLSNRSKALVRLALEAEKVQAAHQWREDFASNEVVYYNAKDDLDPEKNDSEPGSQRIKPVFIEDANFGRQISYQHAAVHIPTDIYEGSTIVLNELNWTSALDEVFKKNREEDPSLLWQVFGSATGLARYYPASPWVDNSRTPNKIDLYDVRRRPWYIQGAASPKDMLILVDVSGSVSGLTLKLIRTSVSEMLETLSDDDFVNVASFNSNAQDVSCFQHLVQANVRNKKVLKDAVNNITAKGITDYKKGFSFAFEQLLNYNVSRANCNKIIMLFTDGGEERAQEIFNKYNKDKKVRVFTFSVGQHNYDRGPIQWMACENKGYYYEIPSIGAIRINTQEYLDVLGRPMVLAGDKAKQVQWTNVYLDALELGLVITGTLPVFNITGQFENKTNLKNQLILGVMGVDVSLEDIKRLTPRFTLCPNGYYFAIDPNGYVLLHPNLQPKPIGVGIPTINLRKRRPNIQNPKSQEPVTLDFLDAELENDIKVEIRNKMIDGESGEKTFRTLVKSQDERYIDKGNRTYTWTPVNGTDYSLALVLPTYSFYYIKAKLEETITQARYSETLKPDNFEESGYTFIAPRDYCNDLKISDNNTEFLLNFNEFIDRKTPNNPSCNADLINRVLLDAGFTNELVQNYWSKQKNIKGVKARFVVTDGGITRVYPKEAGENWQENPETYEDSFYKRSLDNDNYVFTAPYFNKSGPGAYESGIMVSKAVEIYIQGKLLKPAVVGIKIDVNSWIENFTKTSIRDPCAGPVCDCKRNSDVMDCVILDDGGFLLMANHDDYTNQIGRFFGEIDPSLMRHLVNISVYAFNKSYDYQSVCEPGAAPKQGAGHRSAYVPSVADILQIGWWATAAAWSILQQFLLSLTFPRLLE
Sequence of human Cav2.2 (P54289 957-1103 partner limits assumed): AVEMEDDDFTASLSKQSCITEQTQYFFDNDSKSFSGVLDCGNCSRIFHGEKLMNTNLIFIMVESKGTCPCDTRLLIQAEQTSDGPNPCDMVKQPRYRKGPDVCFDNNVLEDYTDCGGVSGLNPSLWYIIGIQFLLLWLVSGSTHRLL
Sequence of human Cav2.2 (P54284 whole entry partner): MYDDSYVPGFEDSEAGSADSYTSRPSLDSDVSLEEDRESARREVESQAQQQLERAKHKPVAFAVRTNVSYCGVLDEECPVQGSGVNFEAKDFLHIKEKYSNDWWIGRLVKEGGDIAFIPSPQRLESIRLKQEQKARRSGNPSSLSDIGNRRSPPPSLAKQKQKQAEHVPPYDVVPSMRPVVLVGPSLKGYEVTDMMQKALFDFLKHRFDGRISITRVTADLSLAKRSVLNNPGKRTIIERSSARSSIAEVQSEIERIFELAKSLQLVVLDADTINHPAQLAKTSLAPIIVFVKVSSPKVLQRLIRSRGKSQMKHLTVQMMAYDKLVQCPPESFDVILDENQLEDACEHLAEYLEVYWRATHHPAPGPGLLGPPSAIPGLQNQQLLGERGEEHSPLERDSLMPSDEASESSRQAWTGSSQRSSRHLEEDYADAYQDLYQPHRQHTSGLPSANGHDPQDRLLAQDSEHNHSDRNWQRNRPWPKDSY

Experiment [2] deals with Sprague Dawley rats. Kind of experiment: Analgesic effect against neuropathic pain, Bennett model (chronic constriction injury). The class given is in vivo. The conditions noted are these: Rattus norvegicus, 1 h; 30 mg/kg po; mechanical allodynia 60 minutes after administration; CCI rats; read-out: % MPE. As for the experimental part: (iii) In Vivo Data—Determination of Analgesic Effect Against Neuropathic Pain—Bennett Model
Animals were prepared for testing, by use of a surgical procedure that induces neuropathic pain in one paw. IACUC guidelines for rodent survival surgery are followed. All surgical procedures are conducted on a clean, uncluttered surgical station. The area is wiped with a 70% ethanol solution before and after use. All instruments are sterilized by either autoclave or chemical sterilant (such as 2% glutaraldehyde >10 hr). Surgeons wear sterile gloves (for the initial procedure), clean lab coat or scrubs, hairnet or cap, and a half-mask respirator (when not working under a hood). Surgeons thoroughly wash their hands prior to donning sterile gloves. Gloves are disinfected in-between animals by cleansing with povidone iodine, chlorhexidine or 70% alcohol for at least 30 seconds. If multiple surgeries are performed, the instruments are cleaned and sterilized between procedures with hot glass beads (>10 seconds). To prevent thermal or chemical burns, the instruments are cooled by rinsing in sterile saline before use.
To minimize post-operative dehydration/maintain blood volume during the surgery, warmed sterile saline or Lactate Ringers solution at 10-15 mL/kg is administered subcutaneously immediately before or after surgery. This facilitates better renal function and presumably anesthesia product excretion post surgery. For all surgical procedures, anesthesia is induced with 4-5% isoflurane. Anesthesia is be maintained during surgery with 1-3% isoflurane. Following induction, the surgical site is carefully shaved and the exposed area is aseptically prepared with povidone-iodine scrub solution and 70% ethanol 2-3 times.
After site sterilization and anesthetic procedures outline above are completed, a 1.5 cm incision is made at the mid-thigh level to expose the biceps femoris and gluteous superficialis (right side), which are then separated by blunt dissection. The common sciatic nerve is exposed, isolated, and loosely ligated by four 5-0 chromic gut ligatures with <1 mm spacing between each. The surgical site is closed in layers—muscle is closed with 6.0 absorbable sutures, and the skin closed with wound clips. Animals are allowed to recover on a warming plate and are returned to their home cages when fully ambulatory. Animals are not be used for testing until at least 10 days following surgery.
Filament strengths used are: 0.4, 0.6, 1.0, 2, 4, 6, 8, and 15 g. […] Filaments are applied perpendicular to the mid-plantar paw surface with enough force to cause slight buckling and held in place for 6-8 seconds. Positive responses include an abrupt withdrawal of the paw from the stimulus or flinching behavior immediately following removal of the stimulus. The maximum force applied will be 15 g. […] All compounds were orally administered in 10% dimethyl sulfoxide/polyethylene glycol at a volume of 2.0 mL/kg, and mechanical allodynia was determined 60 minutes following compound administration. Data are reported as log g values and the percentage of maximum possible effect (% MPE) is calculated using log g values with the formula: % MPE=(log [observed PWT in grams]−log [mean PWT vehicle])/(log [15]−log [mean PWT vehicle])*100 All statistical procedures are run on log g values.

Regarding `CN[C@@H](CC(C)C)C(=O)N[C@H]1CC[C@@H]2CN(c3ccc(C(F)(F)F)cn3)C[C@@H]21` [Example 600, N^2-methyl-N-{(3aR,4S,6aS)-2-[5-(trifluoromethyl)pyridin-2-yl]octahydrocyclopenta[c]pyrrol-4-yl}-L-leucinamide], the inhibition in vivo at 30 mg/kg with Sprague Dawley rats [1] stood at 63%; with Sprague Dawley rats [2], 40%. In addition, the IC50 on human Cav2.2 worked out at 2860 nM.
Regarding `CCC[C@H](NC)C(=O)N[C@H]1CC[C@@H]2CN(c3ccc(C(F)(F)F)cn3)C[C@@H]21` [Example 599, N^2-methyl-N-{(3aR,4S,6aS)-2-[5-(trifluoromethyl)pyridin-2-yl]octahydrocyclopenta[c]pyrrol-4-yl}-L-norvalinamide], the inhibition in vivo at 30 mg/kg in the experiment on Sprague Dawley rats [1] was found to be 32%. Also, the IC50 on human Cav2.2 stood at 4430 nM.
Turning to `O=C(N[C@H]1CC[C@@H]2CN(c3cccc(C(F)(F)F)n3)C[C@@H]21)[C@@H]1CCCN1` [Example 598, N-{(3aR,4S,6aS)-2-[6-(trifluoromethyl)pyridin-2-yl]octahydrocyclopenta[c]pyrrol-4-yl}-L-prolinamide], the inhibition in vivo at 30 mg/kg in the experiment on Sprague Dawley rats [1] came out at 54%. The IC50 at human Cav2.2 is 2570 nM.
